Source: PubChem BioAssay AID304 (DTP/NCI, 2004)
Where “and” joins values, the source holds several entries; their conditions need not be identical. Equal entries are not always repeated. Toxic doses and inconclusive results are not listed.

Tested on: Lymphosarcoma Mecca ip in C3AKF1 mice, survival T/C%
Experiment: NCI In Vivo Anticancer Drug Screen. Data for tumor model Lymphosarcoma Mecca (intraperitoneal) in C3AKF1 (CHKRF1) mice
Conditions: endpoint: survival time, mean or median, higher = longer survival
Protocol: The antitumor activity of compounds was measured in mice bearing transplantable tumors. Survival or tumor size were measured and the results are expressed as the measurement made in the treated group (T) divided by the measurement made in the vehicle treated control group (C). The tumor model used in this assay is Lymphosarcoma Mecca (intraperitoneal) in C3AKF1 (CHKRF1) mice

[1] = dose: 1.25 mg/kg/injection, schedule: Q01DX010 (ip), vehicle: saline
[2] = dose: 2.5 mg/kg/injection, schedule: Q01DX010 (ip), vehicle: saline
[3] = dose: 5.0 mg/kg/injection, schedule: Q01DX010 (ip), vehicle: saline
[4] = dose: 10.0 mg/kg/injection, schedule: Q01DX010 (ip), vehicle: saline
[5] = dose: 20.0 mg/kg/injection, schedule: Q01DX010 (ip), vehicle: saline
[6] = dose: 0.5 mg/kg/injection, schedule: Q01DX010 (ip), vehicle: saline
[7] = dose: 1.0 mg/kg/injection, schedule: Q01DX010 (ip), vehicle: saline
[8] = dose: 4.0 mg/kg/injection, schedule: Q01DX010 (ip), vehicle: saline
[9] = dose: 6.25 mg/kg/injection, schedule: Q01DX010 (ip), vehicle: saline
[10] = dose: 12.5 mg/kg/injection, schedule: Q01DX010 (ip), vehicle: saline
[11] = dose: 25.0 mg/kg/injection, schedule: Q01DX010 (ip), vehicle: saline
[12] = dose: 50.0 mg/kg/injection, schedule: Q01DX010 (ip), vehicle: saline
[13] = dose: 100.0 mg/kg/injection, schedule: Q01DX010 (ip), vehicle: saline
[14] = dose: 200.0 mg/kg/injection, schedule: Q01DX010 (ip), vehicle: saline
[15] = dose: 80.0 mg/kg/injection, schedule: Q01DX010 (ip), vehicle: saline
[16] = dose: 150.0 mg/kg/injection, schedule: Q01DX010 (ip), vehicle: saline
[17] = dose: 8.0 mg/kg/injection, schedule: Q01DX010 (ip), vehicle: saline
[18] = dose: 16.0 mg/kg/injection, schedule: Q01DX010 (ip), vehicle: saline
[19] = dose: 32.0 mg/kg/injection, schedule: Q01DX010 (ip), vehicle: saline
[20] = dose: 125.0 micrograms/kg/injection, schedule: Q01DX010 (ip), vehicle: saline
[21] = dose: 250.0 micrograms/kg/injection, schedule: Q01DX010 (ip), vehicle: saline
[22] = dose: 500.0 micrograms/kg/injection, schedule: Q01DX010 (ip), vehicle: saline
[23] = dose: 12.5 mg/kg/injection, schedule: Q01DX010 (sc), vehicle: steriod suspending solution
[24] = dose: 25.0 mg/kg/injection, schedule: Q01DX010 (sc), vehicle: steriod suspending solution
[25] = dose: 50.0 mg/kg/injection, schedule: Q01DX010 (sc), vehicle: steriod suspending solution
[26] = dose: 100.0 mg/kg/injection, schedule: Q01DX010 (sc), vehicle: steriod suspending solution
[27] = dose: 3.13 mg/kg/injection, schedule: Q01DX010 (ip), vehicle: saline
[28] = dose: 62.5 mg/kg/injection, schedule: Q01DX010 (ip), vehicle: saline
[29] = dose: 125.0 mg/kg/injection, schedule: Q01DX010 (ip), vehicle: saline
[30] = dose: 250.0 mg/kg/injection, schedule: Q01DX010 (ip), vehicle: saline

## CC[n+]1c(-c2ccccc2)c2cc(N)ccc2c2ccc(N)cc21
[1]
  T/C: 100 % of control
[2]
  T/C: 100 % of control and 120 % of control
[3]
  T/C: 100 % of control
[4]
  T/C: 105 % of control and 120 % of control
[5]
  T/C: 105 % of control

## NC(=O)N(CCCl)N=O
[6]
  T/C: 300 % of control
[7]
  T/C: 158 % of control and 230 % of control
[8]
  T/C: 110 % of control

## CS(=O)(=O)OCCCCOS(C)(=O)=O
[9]
  T/C: 86 % of control and 100 % of control
[10]
  T/C: 100 % of control
[11]
  T/C: 90 % of control
[12]
  T/C: 95 % of control

## NC(=O)n1cccn1
[11]
  T/C: 90 % of control
[12]
  T/C: 100 % of control
[13]
  T/C: 100 % of control
[14]
  T/C: 100 % of control

## O=c1[nH]c(=O)n(C2CC(O)C(CO)O2)cc1F (centres undefined)
[3]
  T/C: 100 % of control
[4]
  T/C: 109 % of control and 115 % of control
[5]
  T/C: 113 % of control and 120 % of control
[15]
  T/C: 159 % of control

## C[C@H](N)C(=O)N[C@@H]1[C@H]2C(=C(O)C[C@@H](O)[C@@H]2O)C(=O)O[C@@H]1C
[16]
  T/C: 155 % of control
dose: 300.0 mg/kg/injection, schedule: Q01DX010 (ip), vehicle: saline
  T/C: 92 % of control
dose: 600.0 mg/kg/injection, schedule: Q01DX010 (ip), vehicle: saline
  T/C: 100 % of control and 120 % of control
dose: 1200.0 mg/kg/injection, schedule: Q01DX010 (ip), vehicle: saline
  T/C: 155 % of control

## Nc1nc(N)c2nc(CNc3ccc(C(=O)NC(CCC(=O)O)C(=O)O)cc3)cnc2n1 (centres undefined)
dose: 0.1 mg/kg/injection, schedule: Q01DX010 (ip), vehicle: other
  T/C: 162 % of control and 215 % of control
dose: 0.2 mg/kg/injection, schedule: Q01DX010 (ip), vehicle: other
  T/C: 155 % of control and 190 % of control

## CN1CC[C@]23c4c5ccc(O)c4O[C@H]2C(=O)CC[C@H]3[C@H]1C5
[8]
  T/C: 88 % of control and 100 % of control
[17]
  T/C: 100 % of control and 111 % of control
[18]
  T/C: 105 % of control and 111 % of control
[19]
  T/C: 100 % of control and 116 % of control

## CN(C)c1nc(N(C)C)nc(N(C)C)n1
dose: 18.8 mg/kg/injection, schedule: Q01DX010 (ip), vehicle: saline
  T/C: 105 % of control
dose: 37.5 mg/kg/injection, schedule: Q01DX010 (ip), vehicle: saline
  T/C: 100 % of control
dose: 75.0 mg/kg/injection, schedule: Q01DX010 (ip), vehicle: saline
  T/C: 100 % of control and 111 % of control
[16]
  T/C: 105 % of control and 111 % of control

## O=c1[nH]cc(F)c(=O)[nH]1
[2]
  T/C: 100 % of control
[3]
  T/C: 110 % of control
[5]
  T/C: 155 % of control

## O=C(Nc1ccc(C2=NCCN2)cc1)c1cccc(C(=O)Nc2ccc(C3=NCCN3)cc2)c1
[17]
  T/C: 113 % of control
[18]
  T/C: 110 % of control and 205 % of control
dose: 64.0 mg/kg/injection, schedule: Q01DX010 (ip), vehicle: saline
  T/C: 175 % of control

## CC1CN1P(=S)(N1CC1C)N1CC1C (centres undefined)
[1]
  T/C: 100 % of control
[2]
  T/C: 100 % of control and 105 % of control
[3]
  T/C: 100 % of control
[4]
  T/C: 100 % of control and 105 % of control
[5]
  T/C: 100 % of control

## COC(=O)[C@@H]1c2cc3c(c(O)c2[C@@H](OC2OC(C)C(OC)C(C)(OC)C2OC)C[C@]1(C)O)C(=O)c1c(O)cc2c(c1C3=O)O[C@H]1O[C@]2(C)[C@H](O)[C@@H](N(C)C)[C@@H]1O (some centres undefined)
[20]
  T/C: 95 % of control and 100 % of control
[21]
  T/C: 110 % of control
[22]
  T/C: 100 % of control and 105 % of control

## Clc1ncnc2nc[nH]c12
dose: 7.5 mg/kg/injection, schedule: Q01DX010 (ip), vehicle: saline
  T/C: 90 % of control
dose: 15.0 mg/kg/injection, schedule: Q01DX010 (ip), vehicle: saline
  T/C: 95 % of control and 100 % of control
dose: 30.0 mg/kg/injection, schedule: Q01DX010 (ip), vehicle: saline
  T/C: 86 % of control and 95 % of control
dose: 60.0 mg/kg/injection, schedule: Q01DX010 (ip), vehicle: saline
  T/C: 86 % of control

## CC(CCC(C)OS(C)(=O)=O)OS(C)(=O)=O (centres undefined)
[8]
  T/C: 109 % of control
[17]
  T/C: 100 % of control
[18]
  T/C: 114 % of control
[19]
  T/C: 95 % of control

## C[C@]12C=CC(=O)C=C1CC[C@@H]1[C@@H]2[C@@H](O)C[C@@]2(C)[C@H]1CC[C@]2(O)C(=O)CO
[23]
  T/C: 86 % of control
[24]
  T/C: 100 % of control
[25]
  T/C: 160 % of control
[26]
  T/C: 115 % of control

## O=[n+]1c2c(n([O-])c3ccccc31)-c1cccc3cccc-2c13
[27]
  T/C: 100 % of control
[10]
  T/C: 88 % of control
[11]
  T/C: 90 % of control

## CC/C(=C(/CC)c1ccc(O)cc1)c1ccc(O)cc1
[23]
  T/C: 96 % of control and 110 % of control
[24]
  T/C: 120 % of control
[25]
  T/C: 88 % of control and 105 % of control
[26]
  T/C: 92 % of control and 100 % of control

## CC(=O)NC1=C(N2CC2)C(=O)C(NC(C)=O)=C(N2CC2)C1=O
dose: 0.13 mg/kg/injection, schedule: Q01DX010 (ip), vehicle: saline
  T/C: 109 % of control
[6]
  T/C: 177 % of control and 188 % of control
[7]
  T/C: 109 % of control and 111 % of control

## Cc1cc2nc3c(=O)[nH]c(=O)nc-3n(CC(O)C(O)C(O)C(O)CO)c2cc1C (centres undefined)
[11]
  T/C: 95 % of control
[12]
  T/C: 90 % of control and 95 % of control
[13]
  T/C: 90 % of control and 100 % of control
[14]
  T/C: 90 % of control and 100 % of control

## C[C@H]1C(=O)O[C@@H]2CCN3CC=C(COC(=O)[C@](C)(O)[C@@]1(C)O)[C@H]23
[27]
  T/C: 109 % of control and 115 % of control
[9]
  T/C: 95 % of control and 109 % of control
[10]
  T/C: 105 % of control and 118 % of control
[11]
  T/C: 109 % of control and 115 % of control

## COc1cc(-c2ccc(Nc3ccccc3C(=O)O)c(OC)c2)ccc1Nc1ccccc1C(=O)O
[10]
  T/C: 111 % of control
[11]
  T/C: 120 % of control and 122 % of control
[14]
  T/C: 105 % of control

## Oc1cc(CN(CCCl)CCCl)c(O)cc1CN(CCCl)CCCl
dose: 0.63 mg/kg/injection, schedule: Q01DX010 (ip), vehicle: saline
  T/C: 120 % of control

## COC1C(OC(=O)/C=C/C=C/C=C/C=C/C(=O)O)CCC2(CO2)C1C1(C)OC1CC=C(C)C (centres undefined)
[11]
  T/C: 100 % of control
[12]
  T/C: 100 % of control and 110 % of control
[13]
  T/C: 100 % of control and 104 % of control
[14]
  T/C: 90 % of control

## OC(CBr)C(O)C(O)C(O)CBr (centres undefined)
[11]
  T/C: 100 % of control
[12]
  T/C: 100 % of control
[13]
  T/C: 100 % of control and 110 % of control
[14]
  T/C: 89 % of control
dose: 400.0 mg/kg/injection, schedule: Q01DX010 (ip), vehicle: saline
  T/C: 115 % of control

## CCN(CC)CCNc1ccc(C)c2sc3ccccc3c(=O)c12
[11]
  T/C: 116 % of control and 122 % of control
[12]
  T/C: 105 % of control
[13]
  T/C: 111 % of control

## COc1cc(-c2ccc(Nc3ccccc3C(=O)O)c(OC)c2)ccc1N
[4]
  T/C: 105 % of control and 110 % of control
[5]
  T/C: 111 % of control and 115 % of control
dose: 40.0 mg/kg/injection, schedule: Q01DX010 (ip), vehicle: saline
  T/C: 122 % of control
[15]
  T/C: 111 % of control

## Cc1cn(C2OC(CO)C(O)C2O)c(=O)[nH]c1=O (centres undefined)
[28]
  T/C: 105 % of control
[29]
  T/C: 111 % of control
[30]
  T/C: 105 % of control
dose: 500.0 mg/kg/injection, schedule: Q01DX010 (ip), vehicle: saline
  T/C: 111 % of control

## COc1ccc2c(c1OC)C(=O)O[C@@H]2[C@H]1c2c(cc3c(c2OC)OCO3)CCN1C
dose: 31.3 mg/kg/injection, schedule: Q01DX010 (ip), vehicle: saline
  T/C: 100 % of control and 105 % of control
[28]
  T/C: 100 % of control and 116 % of control
[29]
  T/C: 100 % of control and 116 % of control
[30]
  T/C: 94 % of control and 100 % of control

## O[C@H](CN1CC1)[C@@H](O)CN1CC1
dose: 62.5 micrograms/kg/injection, schedule: Q01DX010 (ip), vehicle: saline
  T/C: 175 % of control
[20]
  T/C: 210 % of control and 235 % of control
[21]
  T/C: 235 % of control and 300 % of control
[22]
  T/C: 105 % of control

## Nc1nc(=S)c2ncn(C3OC(CO)C(O)C3O)c2[nH]1 (centres undefined)
[7]
  T/C: 115 % of control and 120 % of control
dose: 2.0 mg/kg/injection, schedule: Q01DX010 (ip), vehicle: saline
  T/C: 115 % of control
[8]
  T/C: 105 % of control and 115 % of control
[17]
  T/C: 90 % of control and 105 % of control
